# Data reported in publication PMC10067956, “Pyrazole derivatives of pyridine and naphthyridine as proapoptotic agents in cervical and breast cancer cells” (Scientific Reports, 2023).
# Where two headings read alike, the source gives them in different places.
# Tests used:
# [1] = system: caspase-9; experiment: Activated caspase-9 in HeLa cells; type: cell-based; conditions: versus control
# Description: (§1) Results were represented as fold increase in activated caspase-9 and caspase-3/7 as compared to control as previously reported.
# [2] = system: HeLa cells; experiment: Cell cycle analysis by flow cytometry; type: cell-based; conditions: IC50 and 2 × IC50, PI staining
# Method: Briefly, HeLa cells (2 × 10^5 cells/mL) were grown and treated with IC50 and 2 × IC50 values of potent compound 5j. Cells were harvested and washed three times with PBS to remove traces of cell culture medium. Cells were fixed in 70% ethanol for 24 h at − 20 °C. Pelletized cells were then re-suspended in 1 mL of a solution containing PI (20 µg/mL), RNase A (50 µg/mL) and 0.1% (v/v) Triton X-100. Samples were kept in the dark for 30 min at room temperature and analyzed within an hour as reported earlier.
# [3] = system: caspase-3/7; experiment: Activated caspase-3/7 in HeLa cells; type: cell-based; conditions: versus control
# Description: as §1
# [4] = system: HeLa cells; experiment: Mitochondrial membrane potential (JC-1), HeLa; type: cell-based; conditions: IC50 and 2 × IC50, 24 h
# Method: (§2) Mitochondrial membrane potential was determined by a fluorimetric method using fluorescent dye 5′,5′,6′,6′-tetrachloro-1′,1′,3′,3′-[…] (JC-1). Briefly, 1 × 10^5 cells were grown and treated with IC50 and 2 × IC50 values of compounds 5j and 5k for 24 h. Cells were harvested, pelletized and treated with 0.25 µM of fluorescent dye JC-1. Each sample was transferred to a flat-bottomed black 96-well plate, which was kept in the dark for 20 min. Fluorescence emission was measured by a fluorescent microplate reader (FLUOstar Omega BMG Labtech, Germany) at 590 nm and 520 nm for j-aggregates and j-monomers. Results were measured as ratio of red/green fluorescence as previously reported.
# [5] = system: HeLa cells; experiment: Oxidative stress (H2DCF-DA staining), HeLa; type: cell-based; conditions: IC50 and 2 × IC50
# Method: (§3) After washing with sterile PBS, cells were fixed and 10 µL (0.01 mg/mL) of H2DCF-DA dye was added on microscopic slides. After an incubation of 10 min at room temperature in the dark, fluorescence photomicrographs were obtained as previously reported.
# [6] = system: HeLa cells; experiment: LDH cytotoxicity assay, HeLa; type: cell-based; conditions: IC50 and 2 × IC50
# Method: (§4) Briefly, 1 × 10^4 cells/well were seeded in a flat bottom 96 well cell culture plate and kept for overnight incubation. Cells were treated with potent compounds 5j and 5k at the IC50 and 2 × IC50 values. The plate was centrifuged at 1500 rpm for 3 min and the supernatant (50 µL) transferred to a new sterile 96-well plate. After addition of substrate mix (50 µL), plate was placed at room temperature for 30 min. The absorbance was measured at 490 nm and 680 nm using microplate reader (FLUOstar Omega, Ortenberg, Germany). Cytotoxicity was measured as described earlier.
# [7] = system: herring sperm DNA; experiment: DNA binding studies (UV absorption); conditions: 200 µM compound; 0 to 396 µM DNA; hypochromicity, no red or blue shift
# Method: A stock solution of 5 mg of DNA was prepared in 10 mL of distilled water and the purity of the DNA (A260/A280) was in the range of 1.6 to 1.9. Compound 5j was tested at a final concentration of 200 µM with varying end concentrations (0 to 396 µM) of DNA. The plate was placed at room temperature for 30 min and the UV absorption spectrum was recorded by microplate reader (FLUOstar Omega BMG Labtech, Ortenberg, Germany).
# [8] = system: HeLa cells; experiment: MTT cell viability assay, HeLa; type: cell-based; conditions: 24 h; for IC50: read-out: IC50 (µM) ± SEM, HeLa Cell Line; for inhibition at 100 µM: read-out: %Inhibition at 100 µM, HeLa cell line
# Method: (§5) The anti-proliferative activity of the studied compounds was determined against breast (MCF-7) and cervical (HeLa) cancer cells by the MTT cell viability assay as described earlier[44],[45]. BHK-21 cells were used as non-cancerous cells to study the effect of these compounds on normal cells. Briefly, 1 × 10^4 cells/well were seeded in 96-well microtiter plate and placed in an incubator (Heracell™ VIOS 160i, Thermo-Fisher Scientific) set for 5% CO2 at 37 °C. The stock solutions of compounds were prepared at 10 mM concentration in DMSO. Initial working solutions were prepared in cell culture medium at 1 mM concentration. […] After 24 h, medium in each well was aspirated and cells were treated for 4 h with serum free medium containing 0.2 mg/mL MTT reagent. The solubilizing reagent (10% acidified sodium dodecyl sulfate in propanol in a 1:1 ratio) was added to solubilize formazan crystals. Plates were kept at 37 °C for 30 min and then placed on a gyratory shaker for few min for complete solubilization of formazan crystals. The optical density was measured at 570 nm by microplate reader and IC50 values were calculated from three independent experiments as previously reported.
# [9] = system: MCF-7 cells; experiment: MTT cell viability assay, MCF-7; type: cell-based; conditions: Homo sapiens; for inhibition at 100 µM: MCF7, 100 µM, 24 h, read-out: %Inhibition at 100 µM, MCF-7 cell line
# Method: as §5
# [10] = system: BHK-21 cells; experiment: MTT cell viability assay, non-cancerous BHK-21; type: cell-based, Baby Hamster; conditions: Mesocricetus auratus, 24 h, read-out: IC50 (µM) ± SEM, BHK-21 cell line
# Method: as §5
# [11] = system: HeLa cells; experiment: Alkaline comet assay; type: cell-based
# Method: Comet assay is a sensitive method to determine DNA damage which was performed after some modifications in a published protocol. […] The cervical cancer (HeLa) cells were treated with IC50 value of potent compound 5j for 24 h. Cells were harvested, collected and centrifuged to obtain a pellet. Pelleted cells were re-suspended in media. Untreated cells were used as control cells. For the positive control, 2 × 10^4 cells were treated with 20 µM of freshly prepared hydrogen peroxide for 30 min. Slides were prepared by coating with 1% normal melting point agarose (NMPA) on one side and then dried. Samples (2 × 10^4 cells/sample) were re-suspended in 1 mL of PBS. In a tube, 0.4 mL cell suspension was mixed with 1.2 mL of 0.9% low melting point agarose (LMPA) and mixed thoroughly by pipetting. A cell suspension of 65 µL was laid on coated slide and evenly distributed by placing a coverslip over it. Slides were placed at − 20 °C for 10 min. Then the slides were placed at 4 °C in the dark in a lysis buffer of 100 mM EDTA, 10 mM Trizma base, 2.5 M sodium chloride, 10% DMSO and 1% Triton X-100 in distilled water with a pH of 10. After an overnight incubation, slides were washed with chilled distilled water. These slides were then placed in electrophoresis chamber (Wealtec, USA) having chilled (4 °C) alkali unwinding solution (300 mM sodium hydroxide and 1 mM EDTA in distilled water). Electrophoresis was carried out at an adjusted voltage (between 0.7 and 1.0 V/cm) for 35 min in an electrophoresis tank. Slides were then immersed in neutralization solution (0.4 M Trizma base in 800 mL water, pH 7.5) for 10 min in dark. Propidium iodide (20 µL of 0.01 mg/mL) was used as fluorescent dye to stain DNA. Slides were placed in dark at room temperature. After 10 min, images were captured using a fluorescence microscope (Nikon ECLIPSE Ni–U, Japan) at an excitation/emission wavelength of 493/632 nm. Microscopic images were analyzed using ImageJ (ij152-win-java8, National Institutes of Health, Bethesda, USA) and OpenComet (OpenComet_imagej_v1.3.1, USA) where the DNA content in the head and tail of the comets were automatically measured by the software. Results of three independent experiments were expressed as tail length ([…]), %DNA in comet tail and comet tail moment.
# [12] = system: HeLa cells; experiment: Fluorescence microscopy of apoptosis (PI, DAPI), HeLa; type: cell-based; conditions: IC50 and 2 × IC50, 24 h
# Method: (§6) Morphological changes in compound treated cancer cells were identified using propidium iodide (PI) and 4′,6-diamidino-2-phenylindole (DAPI) staining with observing under a fluorescence microscope (Nikon ECLIPSE Ni–U, Japan). […] After 24 h, media was aspirated, cells were washed with sterile phosphate buffered saline (PBS) and fixed by using 4% formalin and 0.1% Triton X–100 as adherent cells fixation solution. Further, 10 µL (0.01 mg/mL) of PI or DAPI solution was added on slides and kept for 10 min in dark. Fluorescence photomicrographs were captured as previously reported.
# [13] = system: caspase-7; experiment: Activated caspase-7 in MCF-7 cells; type: cell-based; conditions: versus control
# Description: as §1
# [14] = system: MCF-7 cells; experiment: LDH cytotoxicity assay, MCF-7; type: cell-based; conditions: IC50 and 2 × IC50
# Method: as §4
# [15] = system: MCF-7 cells; experiment: Mitochondrial membrane potential (JC-1), MCF-7; type: cell-based; conditions: IC50 and 2 × IC50, 24 h
# Method: as §2
# [16] = system: MCF-7 cells; experiment: Oxidative stress (H2DCF-DA staining), MCF-7; type: cell-based; conditions: IC50 and 2 × IC50
# Method: as §3
# [17] = system: caspase-9; experiment: Activated caspase-9 in MCF-7 cells; type: cell-based; conditions: versus control
# Description: as §1
# [18] = system: MCF-7 cells; experiment: Fluorescence microscopy of apoptosis (PI, DAPI), MCF-7; type: cell-based; conditions: IC50 and 2 × IC50, 24 h
# Method: as §6
# [19] = 5j 6.4 µM 24 h, H2O2 20 µM 30 min (positive control)
structure (smiles),measurement,setting,value
Cc1[nH]nc2nc(N)c3c(N)nc4ccc(F)cc4c3c12 [5j],fold increase in activated caspase-9,"[1]; at 2 × IC50, 18 h",2.2 folds
same,fold increase in activated caspase-9,"[1]; at IC50, 18 h",1.4 folds
same,cell cycle arrest,[2],G0/G1 arrest
same,fold increase in activated caspase-3/7,"[3]; at 2 × IC50, 18 h",4.8 folds
same,fold increase in activated caspase-3/7,"[3]; at IC50, 18 h",about 4 folds
same,"mitochondrial membrane potential, ratio of red/green fluorescence (JC-1)",[4],decrease in red/green ratio
same,"ROS production, H2DCF-DA staining",[5],ROS generation
same,leaked LDH (cytotoxic effect),[6],dose dependent increase in leaked LDH
same,mode of interaction with DNA (absorption spectra),[7],non-covalently bound to DNA
same,IC50,[8],6.43 ± 0.45 µM
same,inhibition at 100 µM,[8]; Homo sapiens,94.8%
same,IC50,[8]; Homo sapiens,6.4 ± 0.45 µM
same,inhibition at 100 µM,[9],47.8%
same,IC50,[10],27.5 ± 1.32 µM
same,DNA damage in comet assay,[11]; 6.4 µM,"DNA damage in treated cells, comparable to positive control"
same,%DNA in tail ± SD,[11]; 5j 6.4 µM 24 h,41.02 ± 7.61%
same,Tail length ± SD,[11]; [19],43 ± 10.3 µm
same,Tail moment ± SD,[11]; [19],23.22 ± 1.61
same,"morphological features of apoptosis, PI and DAPI staining",[12],"Cell detachment, shrinkage of cells and condensation of nuclear material was observed"
Cc1[nH]nc2nc(N)c3c(N)nc4ccc(Cl)cc4c3c12 [5k],fold increase in activated caspase-7,"[13]; at 2 × IC50, 18 h",1.8 fold
same,fold increase in activated caspase-7,"[13]; at IC50, 18 h",1.4 fold
same,leaked LDH (cytotoxic effect),[14],dose dependent increase in leaked LDH
same,"mitochondrial membrane potential, ratio of red/green fluorescence (JC-1)",[15],decrease in red/green ratio
same,"ROS production, H2DCF-DA staining",[16],ROS generation
same,fold increase in activated caspase-9,"[17]; at 2 × IC50, 18 h",1.4 folds
same,fold increase in activated caspase-9,"[17]; at IC50, 18 h",1.1 folds
same,inhibition at 100 µM,[8]; Homo sapiens,96.4%
same,IC50,[8]; Homo sapiens,7.25 ± 0.12 µM
same,inhibition at 100 µM,[9],69.5%
same,IC50,"[9]; MCF7, 24 h, read-out: IC50 (µM) ± SEM, MCF-7 cell line",2.03 ± 0.23 µM
same,IC50,[10],8.21 ± 0.57 µM
same,"morphological features of apoptosis, PI and DAPI staining",[18],"Cell detachment, shrinkage of cells and condensation of nuclear material was observed"
